What all share (format): in vivo
Test [1] deals with insects. As to the kind of experiment: Increase in palatability of baits, general statement. The conditions noted are these: for comparison of activity of D and L isomers: D-cycloserine, L-cycloserine or mixtures in any ratio; for effect on palatability of baits (in words): general statement.
The subject of test [2] is insects. The experiment in a line: Insecticidal efficacy / mortality of baits, general statement. The conditions noted are these: for time to elimination of the insects (delayed mortality): cycloserine exclusively as active ingredient in bait; for difference in kill or duration between D-, L-cycloserine and mixtures: more detailed trials. As to the method:
On the other hand, in addition to the effect of increased palatability, the effect on mortality of compositions containing D-cycloserine, L-cycloserine and DL-cycloserine was investigated.
At this point, we encounter the unexpected situation, not observed in previous trials because it is not usual to determine death within a short time after exposure to the bait (e.g. from a few minutes to a maximum of 24 hours), that baits containing cycloserine exclusively as active ingredient (that is, in a conceptual simplification, water, sugar and cycloserine, or even water with cycloserine), both D-cycloserine and L-cycloserine or their mixtures in any ratio, present delayed mortality, reaching the elimination of the insects they have eaten in up to 7 days.

Another test concerns Periplaneta america. As to the kind of experiment: Test 2A: palatability in terms of grams ingested (Example 2). The conditions noted are these: cockroach test of Example 2. The source says: (§1) Cockroaches: The cockroach test protocol, which can be performed at any location with usual temperature and humidity conditions and with field- or insectary-raised cockroaches, consists of collecting cockroaches that are deprived of food for 7 days; on the day of the test, 4 females and 4 males (or the desired number, for individual measurements, only one individual) are placed in boxes in which the bait is placed in a known quantity and the number of visits to the bait is counted every certain time, optionally the quantity ingested every hour or certain minutes is determined by differential weighing. In examples where mortality is considered, the number of individuals turned over per hour (or other defined time) is observed. The bait is removed and replaced with a standard bait-such as pelleted dog food and a water source, such as moistened cotton wool- and daily mortality is monitored for one week.
A similar test was performed with Periplaneta america, Blattella germanica and Blatta orientialis cockroaches, as detailed below for the first species. In this case, it was possible to evaluate the amount of bait ingested per individual, with the formulas of this example corresponding to those of Example 1, but replacing the 20% fructose in all of them by 20% commercial hazelnut cream, so that we have the formulations C.2.1, P.2.1, P.2.2, P.2.3 with that change only.

Another test concerns ants. The experiment in a line: Example 1 baits with serine, increase in palatability vs control (results not shown). The conditions noted are these: serine instead of cycloserine, or combinations. How it is done: (§2) Ants: The tests are conducted in transparent plastic boxes covered on top with a mixture of ethanol and talcum powder (talcol) which prevents ants from fleeing. A drop of bait is placed on a holder, and the holder is placed with 10-30 ants and the behaviour of the ants is observed.
(§3) The number of ants eating bait is counted every minute until 10′ and every 5 minutes until 30′. The boxes with ants are kept with the sample, with a source of humidity and alternative food to observe mortality at 24 hours and 48 hours.
On the other hand (results not shown), when serine is used instead of cycloserine in the bait, an increase in palatability is also observed, although somewhat lower, around 1.5-1.7 times compared to the control, and when serine, cycloserine and phloxine B, or serine and phloxine B are combined, this increase is 1.7-1-8 times compared to the control, with no appreciable differences between these last two combinations.

The test system of test [3] is Lasius niger. As to the kind of experiment: Palatability of imidacloprid ant bait (Example 3). The conditions noted are these: 0.01 wt. % imidacloprid in bait. How it is done: as §2, §3
To test the combination effect of cycloserine and/or phloxine with known insecticides used in baits, we used an ant bait-type composition and its equivalents of Example 1, but containing 0.01 wt. % of the insecticide imidacloprid. Serine was also tested in parallel instead of cycloserine.
The bait is offered to them, in boxes containing 10 Lasius niger ants each, for 3 hours, during which time palatability is observed.

A further test deals with Culex pipiens. The experiment in a line: Insecticidal efficacy of bait. The conditions noted are these: according to our experience. How it is done: (§4) Mosquitoes: Bait is added at 10% in water used by mosquitoes for drinking, placed in ordinary breeding nets, 10×10×10 cm^3, ad libitum.
(§5) In the case of mosquito tests, the bait is given ad libitum to 50 specimens in 10 cm×10 cm×10 cm^3 cloth cages, using cotton wool impregnated with the baits mentioned above, but with a sugar mix content of only 10%, the rest being compensated by adding more water to the formula, so that it is liquid enough to be absorbed by the mosquitoes.

In another test the test system is Aedes aegypti. As to the kind of experiment: Insecticidal efficacy of bait. The conditions noted are these: according to our experience. As to the method:
as §4, §5

A further test concerns Aedes albopictus. The experiment in a line: Insecticidal efficacy of bait. The conditions noted are these: according to our experience. As to the method:
as §4, §5

Another test concerns Culex quinquefasciatus. The experiment in a line: Insecticidal efficacy of bait. The conditions noted are these: according to our experience. As to the method:
as §4

For a further test, the system named is Anopheles gambiae. The experiment in a line: Insecticidal efficacy of bait. The conditions noted are these: according to our experience. As to the method:
as §4

In a further test the test system is Linepithema humile. The experiment in a line: Insecticidal efficacy of bait. The conditions noted are these: according to our experience. How it is done:
as §2, §3

Test [4] deals with Lasius niger. The experiment in a line: Insecticidal efficacy of bait. The conditions noted are these: according to our experience. How it is done: as §2, §3
Another test relates to Blatta orientalis. The experiment in a line: Insecticidal efficacy of bait. The conditions noted are these: according to our experience.
Text: as §1

A further test relates to Periplaneta americana. As to the kind of experiment: Insecticidal efficacy of bait. The conditions noted are these: according to our experience.
Text: as §1

A further test relates to Blattella germanica. The experiment in a line: Insecticidal efficacy of bait. The conditions noted are these: according to our experience.
Text: as §1

Another test relates to cockroach. The experiment in a line: Transfer of lethal effect by cannibalism. The conditions noted are these: cockroach offered a cycloserine-treated cockroach. The source says:
This circumstance, in addition to the use of cycloserine to increase the palatability of the baits, means that cycloserine can be used as an insecticide and also with an infrequent, or even unknown, particularity in pest control, i.e. the treated insects die in extraordinarily (relatively) long times of up to 7 days. This, which in principle may seem a disadvantage, is not so in certain cases, since it allows the ants to have more time to live functionally well, without external signs of intoxication that could warn other ants, and to transmit the bait by tropholaxy to the queen ant (or queen ants of the same anthill, when this is the case) and thus more effectively destroy the anthill. Similarly, the alertness (if any) of conspecifics to a dead cockroach near the bait is suppressed. […] Similarly, for long-term pest control, immediacy is not an insurmountable requirement, so it is also applicable in mosquito control to prevent disease transmission or pest control in agriculture.

For a further test, the system named is Simuliidae ssp. As to the kind of experiment: Insecticidal efficacy of bait. The conditions noted are these: according to our experience.
For the next test, the system named is Bactrocera cucurbitae. As to the kind of experiment: Insecticidal efficacy of bait. The conditions noted are these: according to our experience.
For another test, the system named is Musca domestica. The experiment in a line: Insecticidal efficacy of bait. The conditions noted are these: according to our experience. As to the method: (§6) Flies: Bait is added at 10% in water used by the flies for drinking, placed in 10×10×10 cm^3 ordinary breeding nets, ad libitum.
(§7) Similarly, tests have been carried out with […] with house flies (Musca domestica) and with Mediterranean flies (Ceratitis capitata).

In another test the test system is Ceratitis capitata. The experiment in a line: Insecticidal efficacy of bait. The conditions noted are these: according to our experience. As to the method: as §6, §7
The test system of a further test is Bactrocera oleae. The experiment in a line: Insecticidal efficacy of bait. The conditions noted are these: according to our experience.

Molecules are shown by their SMILES.

Consider six compounds from US20260334464A1, “INCREASED PALATABILITY OF INSECTICIDAL INSECT BAITS” (BIO LOGIC CROP SCIENCE S.L., priority 2023, published 2026).

Consider `N[C@@H]1CONC1=O` [D-cycloserine], for which the “comparison of activity of D and L isomers” value (“comparison” below) with insects [1] is recorded as “we have not seen an activity of one isomer greater than the other”. Also, in the test on insects [2], the “time to elimination of the insects (delayed mortality)” value (“time to elimination of the insects” below) is listed as “up to 7 days”; the “difference in kill or duration between D-, L-cycloserine and mixtures” value is “no significant difference in kill or duration”.

On to `N[C@@H](CO)C(=O)O` [serine], for which the “effect on palatability (in words)” value in the test on Periplaneta america is on record as “increases palatability, but to a lesser extent than cycloserine”. Further, the “increase in palatability compared to the control” value with ants is recorded as 1.5-1.7 times. In the test with insects [1], the “effect on palatability of baits (in words)” value (from here on “effect … of baits (in words)”) is listed as “shown to increase the palatability of baits”.

As for `O=[N+]([O-])NC1=NCCN1Cc1ccc(Cl)nc1` [imidacloprid], the bait rejection result with Lasius niger [3] is given as “does not cause bait rejection”.

For `O=C([O-])c1c(Cl)c(Cl)c(Cl)c(Cl)c1-c1c2cc(Br)c(=O)c(Br)c-2oc2c(Br)c([O-])c(Br)cc12.[Na+].[Na+]` [phloxine B], in the test with insects [1], the “effect … of baits (in words)” value is recorded as “shown to increase the palatability of baits”.

Regarding `N[C@H]1CONC1=O` [L-cycloserine], the “comparison” value with insects [1] is on record as “we have not seen an activity of one isomer greater than the other”. In addition, in the test on insects [2], the “time to elimination of the insects” value is listed as “up to 7 days”; the “difference in kill or duration between D-, L-cycloserine and mixtures” value is on record as “no significant difference in kill or duration”.

As for `N[C@@H]1CON=C1O` [cycloserine], in the test with Periplaneta america, the “effect on palatability (in words)” value is given as “more pronounced”. Further, the “efficacy as an insecticide” value in the test with Culex pipiens, in the test on Aedes aegypti, in the test on Aedes albopictus, with Culex quinquefasciatus, in the test on Anopheles gambiae and in the test on Linepithema humile was “great efficacy” in each case. The “efficacy as an insecticide” value in the test with Lasius niger [4], in the test with Blatta orientalis, in the test on Periplaneta americana, with Blattella germanica, in the test with Simuliidae ssp. and in the test with Bactrocera cucurbitae was “great efficacy” in each case. Besides, the “efficacy as an insecticide” value in the test on Musca domestica, with Ceratitis capitata and with Bactrocera oleae was “great efficacy” in each case. In the test with cockroach, the “transfer of lethal effect to another cockroach” value is “lethal effect of cycloserine on one cockroach is transferred to another cockroach”. In the test with insects [1], the “comparison” value was “activity we have observed to be the same”. In the test with insects [1], the “effect … of baits (in words)” value is listed as “shown to increase the palatability of baits”. In the test on insects [2], the “time to elimination of the insects” value is recorded as “up to 7 days”.
